Source: the supplement of paper PMC10307832

Columns and labels:
Assay in all cases: relative viability (nuclei count vs DMSO), 5 days (fraction); higher = more cells survive
KN-93 + Trametinib = compound: CN(C/C=C/C1=CC=C(C=C1)Cl)CC2=CC=CC=C2N(CCO)S(=O)(=O)C3=CC=C(C=C3)OC [KN-93] + CC(=O)Nc1cccc(-n2c(=O)n(C3CC3)c(=O)c3c(Nc4ccc(I)cc4F)n(C)c(=O)c(C)c32)c1 [Trametinib] (partner 0.02 µM)
Procedure, shortened: (§1)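 Each reported value is a median over duplicate plates. It expresses relative viability: treated-well nuclei count divided by vehicle-well nuclei count. Lung cancer cell lines in 1536-well plates were dosed by pin tool a day after seeding, alone with one drug or with a fixed anchor-drug dose plus five library-drug doses (not always all listed) in √10 steps, and nuclei were counted after 5 days.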

KN-93 + Luminespib = compound: CN(C/C=C/C1=CC=C(C=C1)Cl)CC2=CC=CC=C2N(CCO)S(=O)(=O)C3=CC=C(C=C3)OC [KN-93] + CCNC(=O)c1noc(-c2cc(C(C)C)c(O)cc2O)c1-c1ccc(CN2CCOCC2)cc1 [Luminespib] (partner 0.01 µM)
Procedure, shortened: as §1

KN-93 + OSI-027 = compound: CN(C/C=C/C1=CC=C(C=C1)Cl)CC2=CC=CC=C2N(CCO)S(=O)(=O)C3=CC=C(C=C3)OC [KN-93] + COc1cccc2cc(-c3nc([C@H]4CC[C@H](C(=O)O)CC4)n4ncnc(N)c34)[nH]c12 [OSI-027] (partner 0.5 µM)
Procedure, shortened: as §1

KN-93 + AZD7762 = compound: CN(C/C=C/C1=CC=C(C=C1)Cl)CC2=CC=CC=C2N(CCO)S(=O)(=O)C3=CC=C(C=C3)OC [KN-93] + NC(=O)Nc1cc(-c2cccc(F)c2)sc1C(=O)N[C@H]1CCCNC1 [AZD7762] (partner 0.2 µM)
Procedure, shortened: as §1

KN-93 + Vorinostat = compound: CN(C/C=C/C1=CC=C(C=C1)Cl)CC2=CC=CC=C2N(CCO)S(=O)(=O)C3=CC=C(C=C3)OC [KN-93] + O=C(CCCCCCC(=O)Nc1ccccc1)NO [Vorinostat] (partner 1 µM)
Procedure, shortened: as §1

Row | Cell Line | relative viability (KN-93 + Trametinib; first compound 0.08 µM) | relative viability (KN-93 + Trametinib; first compound 0.253 µM) | relative viability (KN-93 + Trametinib; first compound 2.53 µM) | relative viability (KN-93 + Trametinib; first compound 8 µM) | relative viability (KN-93 + Luminespib; first compound 0.08 µM) | relative viability (KN-93 + Luminespib; first compound 0.253 µM) | relative viability (KN-93 + Luminespib; first compound 2.53 µM) | relative viability (KN-93 + Luminespib; first compound 8 µM) | relative viability (KN-93 + OSI-027; first compound 0.08 µM) | relative viability (KN-93 + OSI-027; first compound 0.253 µM) | relative viability (KN-93 + OSI-027; first compound 2.53 µM) | relative viability (KN-93 + OSI-027; first compound 8 µM) | relative viability (KN-93 + AZD7762; first compound 0.08 µM) | relative viability (KN-93 + AZD7762; first compound 0.253 µM) | relative viability (KN-93 + AZD7762; first compound 2.53 µM) | relative viability (KN-93 + AZD7762; first compound 8 µM) | relative viability (KN-93 + Vorinostat; first compound 0.08 µM) | relative viability (KN-93 + Vorinostat; first compound 0.253 µM) | relative viability (KN-93 + Vorinostat; first compound 2.53 µM) | relative viability (KN-93 + Vorinostat; first compound 8 µM)
1 | NCI-H2085 | 0.508 | 0.506 | 0.575 | 0.459 | 0.441 | 0.371 | 0.441 | 0.356 | 0.733 | 0.639 | 0.806 | 0.597 | 0.883 | 1.12 | 1.06 | 0.592 | 0.791 | 0.747 | 0.747 | 0.578
2 | NCI-H2087 | 0.249 | 0.15 | 0.19 | 0.128 | 0.16 | 0.182 | 0.184 | 0.133 | 0.481 | 0.566 | 0.586 | 0.491 | 0.821 | 1.61 | 1.16 | 1.04 | 0.707 | 0.963 | 0.861 | 0.54
3 | NCI-H2126 | 0.468 | 0.453 | 0.593 | 0.466 | 1.03 | 0.984 | 0.941 | 0.708 | 0.691 | 0.557 | 0.638 | 0.674 | 0.939 | 1.01 | 1.03 | 0.974 | 0.782 | 0.83 | 0.727 | 0.704
4 | NCI-H2170 | 0.796 | 1.16 | 1.02 | 0.834 | 0.785 | 0.852 | 0.963 | 0.483 | 0.713 | 0.712 | 0.728 | 0.567 | 0.623 | 0.971 | 0.845 | 0.734 | 0.717 | 0.907 | 0.932 | 0.522
5 | NCI-H2342 | 0.744 | 0.687 | 0.94 | 0.78 | 0.623 | 0.686 | 0.913 | 0.634 | 0.587 | 0.62 | 0.625 | 0.582 | 0.472 | 0.467 | 0.539 | 0.404 | 0.635 | 0.8 | 0.835 | 0.719
6 | NCI-H2347 | 0.28 | 0.316 | 0.282 | 0.26 | 0.618 | 0.728 | 0.458 | 0.511 | 0.379 | 0.318 | 0.371 | 0.339 | 0.621 | 0.861 | 0.885 | 0.498 | 0.513 | 0.623 | 0.674 | 0.458
